Format in all cases: cell-based
In data set [1] the test system is HS-68 and NIH 3T3 cell lines. In words: Drug delivery by vector peptides (ANS and Bis-ANS). The settings on record: transfection of ANS and Bis-ANS; incubated with peptide at a molar ratio of 1:20; 1 h. The method, then:
For investigation of drug delivery, we used the naphthalene derivatives ANS and Bis-ANS, which have intrinsic fluorescence. The drugs was incubated with peptide at a molar ratio of 1:20, followed by overlay of the complex onto cultured cells. This was followed by incubation for 1 h. Then cells were extensively washed and observed by microscopy.
(§1) The results of the experiments testing the transfection properties of the peptides are presented as a table in which the sequences are aligned for optimal comparison: […]

Data set [2] concerns HS-68 and NIH 3T3 cell lines. The data set can be described thus: Protein delivery by vector peptides (GFP). The note with it: transfection of GFP; incubated with peptide at a molar ratio of 1:20; 1 h. The method, then:
(§2) We evaluated the ability of peptides designed according to principles described herein, as well as variants thereof, to deliver peptides and proteins into HS-68 and NIH 3T3 cell lines. Peptide delivery was performed with a 32 mer peptide (peptide B), and in some cases a […] peptide (peptide A). The peptides were fluorescently labeled. Peptides (5.0×10^−8M or 5.0×10^−7M) were incubated with one micromolar vector peptide in cell culture medium in the absence of serum for 30 min. Cultured cells (0.5 to 1.0×10^6) were then overlaid with the preformed peptide/vector peptide complexes in 500 μL DMEM for one hour in the presence or absence of FCS. Complexes were formed prior to addition of FCS to avoid interactions between ep-vector and serum proteins. Following this transfection step, fresh DMEM supplemented with serum was added for another hour. Then cells were extensively washed, fixed and analyzed by fluorescence microscopy.
To investigate protein delivery we tested the delivery into cells of the fluorescent protein GFP. The protein was incubated with peptide at a molar ratio of 1:20, followed by overlay of the complex onto cultured cells. This was followed by incubation for 1 h. Then cells were extensively washed and fixed with formalin before observation.
as §1

Data set [3] deals with HS-68 and NIH 3T3 cell lines. The data set can be described thus: Peptide delivery by vector peptides (fluorescently labeled peptide B / peptide A). The note with it: transfection of fluorescently labeled peptide; one micromolar vector peptide; 1 h. The method, then:
as §2, §1

Data set [4] concerns mammalian fibroblasts, NIH 3T3 fibroblasts or murine L1210 lymphocytes. The data set can be described thus: Cellular localization of lucifer yellow-linked peptides. The note with it: 3 min incubation at 10 μM.
The subject of data set [5] is human fibroblasts (HS-68). In words: Cellular localization of rhodamine-labeled ODN-peptide conjugate. The method, then: The first ODN has the sequence d(GGTCTTACTCTCCGTCTCT) (SEQ ID NO:30). It was modified in 5′ by a hexamethylene-bridged pyridyldisulfide and in 3′ by a 2-propanol-3-amino group and labeled with rhodamine. Conjugation was performed by stirring a solution of the oligonucleotide with a three fold excess of peptide for 3 h. […] The target compartment of the conjugate remains to be identified.

*1 amine or outer side, *2 acyl side, *3 side chain or, on linkers, in order; H or OH if unused. Where no end group is shown, it is not given here. Cysteamide = C(CS[*:3])N[*:1]

On to KTWWETWWETWSQPKKRKV [Pep-4.2-cya], for which the Drug result in data set [1] was “Aggr”. Besides, the Pro entry in data set [2] is reported as “Aggr”. Also, the Pep result in data set [3] was “Aggr”.

As for KETWWETWWETWSQKKKRKV [Pep-2.9-cya], the Pep in data set [3] came to 5%.

With “Lys Glu Thr Trp Trp Glu Thr Trp Trp Thr Glu Trp Ser Gln Pro Lys Lys Lys Arg Lys Val (Ac-KETWWETWWTEWSQPKKKRKV-Cysteamide) [Pep-2-cya]”, the Drug in data set [1] is recorded as 20%.

As for “Tyr Gly Phe Lys Lys Phe Arg Lys Pro Trp Thr Trp Trp Glu Thr Trp Trp Thr Glu (Ac-YGFKKFRKPWTWWETWWTE-Cysteamide; SMILES CC(=O)N[C@@H](Cc1ccc(O)cc1)C(=O)NCC(=O)N[C@@H](Cc1ccccc1)C(=O)N[C@@H](CCCCN)C(=O)N[C@@H](CCCCN)C(=O)N[C@@H](Cc1ccccc1)C(=O)N[C@@H](CCCNC(=N)N)C(=O)N[C@@H](CCCCN)C(=O)N1CCC[C@H]1C(=O)N[C@@H](Cc1c[nH]c2ccccc12)C(=O)N[C@H](C(=O)N[C@@H](Cc1c[nH]c2ccccc12)C(=O)N[C@@H](Cc1c[nH]c2ccccc12)C(=O)N[C@@H](CCC(=O)O)C(=O)N[C@H](C(=O)N[C@@H](Cc1c[nH]c2ccccc12)C(=O)N[C@@H](Cc1c[nH]c2ccccc12)C(=O)N[C@H](C(=O)N[C@@H](CCC(=O)O)C(=O)NCCS)[C@@H](C)O)[C@@H](C)O)[C@@H](C)O) [Pep-3-cya]”, the Drug in data set [1] was 50-70%. Besides, in data set [2], the Pro worked out at 5%. Also, in data set [3], the Pep was determined as 50%.

“GALFLGWLGAAGSTMGAWSQPKKKRKV (Ac-GALFLGWLGAAGSTMGAWSQPKKKRKV; not fully specified (C-terminus); printed as GALFLGWLGAAGSTMGAWSQPKKKRKV) [[3]]”: in data set [4], the “final localization of lucifer yellow-linked peptide” value is “both localizations, membrane associate and nuclear”.

Take “d(GGTCTTACTCTCCGTCTCT) (DNA, backbone not given here; 5' hexamethylene pyridyldisulfide, 3' 2-propanol-3-amino, rhodamine label, peptide conjugated) [first ODN]”: in data set [5] (ODN conjugated to peptide, 5 min incubation), the “cellular localization of the conjugate” value was “clearly cytoplasmic but not nuclear”. Moreover, the “cellular internalization of the free oligonucleotide” value in data set [5] (free, not conjugated) is “no spontaneous cellular internalization could be detected”.

As to “Lys Lys Lys Arg Lys Val Lys Glu Thr Trp Trp Glu Thr Trp Trp Glu Thr Val (Ac-KKKRKVKETWWETWWETV-Cysteamide; SMILES CC(=O)N[C@@H](CCCCN)C(=O)N[C@@H](CCCCN)C(=O)N[C@@H](CCCCN)C(=O)N[C@@H](CCCNC(=N)N)C(=O)N[C@@H](CCCCN)C(=O)N[C@H](C(=O)N[C@@H](CCCCN)C(=O)N[C@@H](CCC(=O)O)C(=O)N[C@H](C(=O)N[C@@H](Cc1c[nH]c2ccccc12)C(=O)N[C@@H](Cc1c[nH]c2ccccc12)C(=O)N[C@@H](CCC(=O)O)C(=O)N[C@H](C(=O)N[C@@H](Cc1c[nH]c2ccccc12)C(=O)N[C@@H](Cc1c[nH]c2ccccc12)C(=O)N[C@@H](CCC(=O)O)C(=O)N[C@H](C(=O)N[C@H](C(=O)NCCS)C(C)C)[C@@H](C)O)[C@@H](C)O)[C@@H](C)O)C(C)C) [Pep-2.6-cya]”, the Pro in data set [2] is reported as 20%. This substance also had a Pep in data set [3] of 30%.

Regarding “Lys Trp Trp Glu Thr Trp Trp Glu Thr Trp Ser Gln Pro Lys Lys Lys Arg Lys Val (Ac-KWWETWWETWSQPKKKRKV-Cysteamide) [Pep-2.5-cya]”, in data set [1], the Drug worked out at 5%. Besides, the Pro in data set [2] is on record as 5%. Besides, the Pep in data set [3] was 50-60%.

With “Lys Glu Thr Trp Trp Glu Thr Trp Thr Trp Ser Gln Pro Lys Lys Lys Arg Lys Val (Ac-KETWWETWTWSQPKKKRKV-Cysteamide) [Pep-2.4-cya]”, the Drug in data set [1] stood at 5%. In data set [2], the Pro was 20-30%. This substance also registered a Pep in data set [3] of 60%.

As to “Lys Glu Thr Trp Trp Glu Thr Trp Trp Thr Glu Ala Ser Gln Pro Lys Lys Arg Lys Val (Ac-KETWWETWWTEASQPKKRKV-Cysteamide) [Pep-2.2-cya]”, the Drug in data set [1] was 5%. For the same substance, the Pro in data set [2] turned out to be 30%.

Take KETWWETWWTEWSQPKKRKV [Pep-2.1-cya]: in data set [1], the Drug is given as 20%. Besides, the Pro in data set [2] stood at 70%. Also, in data set [3], the Pep is 80%.

In the case of “Tyr Gly Phe Lys Lys Arg Arg Gln Thr Trp Trp Glu Thr Trp Trp Thr Glu (Ac-YGFKKRRQTWWETWWTE-Cysteamide) [Pep-1.2-cya]”, the Drug in data set [1] is recorded as 5%. The Pro in data set [2] is listed as 80-90%. Further, in data set [3], the Pep is reported as 80%.

In the case of “Lys Lys Lys Arg Lys Val Lys Pro Glu Thr Trp Trp Glu Thr Trp Trp Glu Thr Val (Ac-KKKRKVKPETWWETWWETV-Cysteamide) [Pep-2.7-cya]”, in data set [2], the Pro is given as 10-20%. Moreover, the Pep in data set [3] is 20-30%.

For “GALFLGWLGAAGSTMGARKKKRKV (Ac-GALFLGWLGAAGSTMGARKKKRKV; not fully specified (C-terminus); printed as GALFLGWLGAAGSTMGARKKKRKV) [[4]]”, the “final localization of lucifer yellow-linked peptide” value in data set [4] is “remains membrane associated”.

Turning to “Lys Glu Thr Trp Trp Glu Thr Trp Trp Glu Thr Trp Ser Gln Pro Lys Lys Lys Arg Lys Val (Ac-KETWWETWWETWSQPKKKRKV-Cysteamide) [Pep-2.3-cya]”, the Drug in data set [1] is 30%. Also, the Pro in data set [2] is given as 50-70%. Moreover, in data set [3], the Pep is 60-70%.

Turning to “Lys Thr Trp Trp Glu Thr Trp Trp Glu Thr Ala Ser Gln Pro Lys Lys Arg Lys Val (Ac-KTWWETWWETASQPKKRKV-Cysteamide; SMILES CC(=O)N[C@@H](CCCCN)C(=O)N[C@H](C(=O)N[C@@H](Cc1c[nH]c2ccccc12)C(=O)N[C@@H](Cc1c[nH]c2ccccc12)C(=O)N[C@@H](CCC(=O)O)C(=O)N[C@H](C(=O)N[C@@H](Cc1c[nH]c2ccccc12)C(=O)N[C@@H](Cc1c[nH]c2ccccc12)C(=O)N[C@@H](CCC(=O)O)C(=O)N[C@H](C(=O)N[C@@H](C)C(=O)N[C@@H](CO)C(=O)N[C@@H](CCC(N)=O)C(=O)N1CCC[C@H]1C(=O)N[C@@H](CCCCN)C(=O)N[C@@H](CCCCN)C(=O)N[C@@H](CCCNC(=N)N)C(=O)N[C@@H](CCCCN)C(=O)N[C@H](C(=O)NCCS)C(C)C)[C@@H](C)O)[C@@H](C)O)[C@@H](C)O) [Pep-4.1-cya]”, the Drug result in data set [1] is listed as “Aggr”. For the same substance, in data set [2], the Pro entry is on record as “Aggr”. In data set [3], the Pep result is “Aggr”.

As for “Tyr Gly Phe Lys Lys Arg Arg Gln Pro Thr Trp Trp Glu Thr Trp Trp Thr Glu (Ac-YGFKKRRQPTWWETWWTE-Cysteamide) [Pep-1.1-cya]”, the Drug in data set [1] was determined as 5%. The Pro in data set [2] was found to be 60%. Besides, the Pep in data set [3] came to 80%.

(Values after patent publication US6841535B2, “Peptide-mediated transfection agents and methods of use” (Active Motif, priority 2000, dated 2005).)
